According to PMC6704710, “Preclinical evaluation of 3D185, a novel potent inhibitor of FGFR1/2/3 and CSF-1R, in FGFR-dependent and macrophage-dominant cancer models” (Journal of Experimental & Clinical Cancer Research : CR, 2019):

Key:
Test in all cases: Eurofins kinase panel
Format in all cases: biochemical
Details in all cases: read-out: Inhibition rate (%)
Arg(h) = molecular target: T1, Arg(h) (Homo sapiens, UniProt P42684)
T1 construct: purchased Eurofins (KinaseProfiler)

Fyn(h) = molecular target: T2, Fyn(h) (Homo sapiens, UniProt P06241)
T2 construct: purchased Eurofins (KinaseProfiler)
T2 sequence (P06241 whole entry): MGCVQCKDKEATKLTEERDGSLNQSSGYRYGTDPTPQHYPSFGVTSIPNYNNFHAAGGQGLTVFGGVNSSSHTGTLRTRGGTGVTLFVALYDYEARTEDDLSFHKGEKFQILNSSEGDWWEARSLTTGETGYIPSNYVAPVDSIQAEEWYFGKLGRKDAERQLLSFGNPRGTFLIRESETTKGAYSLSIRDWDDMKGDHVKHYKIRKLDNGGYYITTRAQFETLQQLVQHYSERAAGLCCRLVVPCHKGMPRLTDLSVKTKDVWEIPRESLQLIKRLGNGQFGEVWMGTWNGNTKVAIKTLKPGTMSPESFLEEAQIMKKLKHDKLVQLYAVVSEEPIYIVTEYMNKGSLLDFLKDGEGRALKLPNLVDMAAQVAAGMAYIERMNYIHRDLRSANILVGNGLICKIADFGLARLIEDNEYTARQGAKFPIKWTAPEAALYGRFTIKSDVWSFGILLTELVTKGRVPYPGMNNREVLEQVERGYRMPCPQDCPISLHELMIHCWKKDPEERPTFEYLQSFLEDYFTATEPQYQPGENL

GRK6(h) = molecular target: T3, GRK6(h) (Homo sapiens, UniProt P43250)
T3 construct: purchased Eurofins (KinaseProfiler)
T3 sequence (P43250 whole entry): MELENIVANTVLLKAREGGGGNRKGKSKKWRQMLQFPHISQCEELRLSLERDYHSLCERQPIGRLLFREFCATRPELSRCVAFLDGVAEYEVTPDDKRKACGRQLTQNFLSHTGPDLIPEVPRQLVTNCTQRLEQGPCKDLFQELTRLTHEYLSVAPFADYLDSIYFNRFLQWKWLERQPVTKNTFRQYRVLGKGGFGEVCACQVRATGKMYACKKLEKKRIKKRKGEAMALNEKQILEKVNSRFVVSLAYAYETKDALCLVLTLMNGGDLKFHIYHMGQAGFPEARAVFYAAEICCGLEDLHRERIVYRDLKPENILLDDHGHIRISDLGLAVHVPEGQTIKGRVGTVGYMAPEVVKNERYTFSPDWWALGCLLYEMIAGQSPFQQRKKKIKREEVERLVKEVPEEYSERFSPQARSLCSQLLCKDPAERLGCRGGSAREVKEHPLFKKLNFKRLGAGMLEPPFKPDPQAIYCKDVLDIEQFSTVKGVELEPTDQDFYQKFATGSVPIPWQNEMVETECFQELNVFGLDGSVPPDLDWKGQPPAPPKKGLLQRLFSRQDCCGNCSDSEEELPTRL

MAK(h) = molecular target: T4, MAK(h) (Homo sapiens, UniProt P20794)
T4 construct: purchased Eurofins (KinaseProfiler)
T4 sequence (P20794 1-623): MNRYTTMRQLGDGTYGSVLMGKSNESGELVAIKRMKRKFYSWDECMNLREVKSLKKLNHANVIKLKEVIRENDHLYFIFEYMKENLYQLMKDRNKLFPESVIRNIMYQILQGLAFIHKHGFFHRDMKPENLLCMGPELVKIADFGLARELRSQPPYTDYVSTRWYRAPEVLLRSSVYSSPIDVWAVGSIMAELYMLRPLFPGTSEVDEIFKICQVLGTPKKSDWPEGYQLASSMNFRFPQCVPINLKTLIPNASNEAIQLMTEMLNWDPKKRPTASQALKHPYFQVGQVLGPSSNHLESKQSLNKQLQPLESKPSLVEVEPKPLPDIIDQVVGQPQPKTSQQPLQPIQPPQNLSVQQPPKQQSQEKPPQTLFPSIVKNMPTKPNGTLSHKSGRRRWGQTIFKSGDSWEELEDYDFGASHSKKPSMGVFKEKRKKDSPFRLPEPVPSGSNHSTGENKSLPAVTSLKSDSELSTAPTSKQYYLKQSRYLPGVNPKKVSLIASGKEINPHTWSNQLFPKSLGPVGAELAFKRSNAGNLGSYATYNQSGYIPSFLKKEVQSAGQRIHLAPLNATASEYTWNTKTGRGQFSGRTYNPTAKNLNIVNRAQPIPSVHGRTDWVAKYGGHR

MRCKα(h) = molecular target: T5, MRCKα(h) (Homo sapiens, UniProt Q5VT25)
T5 construct: purchased Eurofins (KinaseProfiler)
T5 sequence (Q5VT25 whole entry): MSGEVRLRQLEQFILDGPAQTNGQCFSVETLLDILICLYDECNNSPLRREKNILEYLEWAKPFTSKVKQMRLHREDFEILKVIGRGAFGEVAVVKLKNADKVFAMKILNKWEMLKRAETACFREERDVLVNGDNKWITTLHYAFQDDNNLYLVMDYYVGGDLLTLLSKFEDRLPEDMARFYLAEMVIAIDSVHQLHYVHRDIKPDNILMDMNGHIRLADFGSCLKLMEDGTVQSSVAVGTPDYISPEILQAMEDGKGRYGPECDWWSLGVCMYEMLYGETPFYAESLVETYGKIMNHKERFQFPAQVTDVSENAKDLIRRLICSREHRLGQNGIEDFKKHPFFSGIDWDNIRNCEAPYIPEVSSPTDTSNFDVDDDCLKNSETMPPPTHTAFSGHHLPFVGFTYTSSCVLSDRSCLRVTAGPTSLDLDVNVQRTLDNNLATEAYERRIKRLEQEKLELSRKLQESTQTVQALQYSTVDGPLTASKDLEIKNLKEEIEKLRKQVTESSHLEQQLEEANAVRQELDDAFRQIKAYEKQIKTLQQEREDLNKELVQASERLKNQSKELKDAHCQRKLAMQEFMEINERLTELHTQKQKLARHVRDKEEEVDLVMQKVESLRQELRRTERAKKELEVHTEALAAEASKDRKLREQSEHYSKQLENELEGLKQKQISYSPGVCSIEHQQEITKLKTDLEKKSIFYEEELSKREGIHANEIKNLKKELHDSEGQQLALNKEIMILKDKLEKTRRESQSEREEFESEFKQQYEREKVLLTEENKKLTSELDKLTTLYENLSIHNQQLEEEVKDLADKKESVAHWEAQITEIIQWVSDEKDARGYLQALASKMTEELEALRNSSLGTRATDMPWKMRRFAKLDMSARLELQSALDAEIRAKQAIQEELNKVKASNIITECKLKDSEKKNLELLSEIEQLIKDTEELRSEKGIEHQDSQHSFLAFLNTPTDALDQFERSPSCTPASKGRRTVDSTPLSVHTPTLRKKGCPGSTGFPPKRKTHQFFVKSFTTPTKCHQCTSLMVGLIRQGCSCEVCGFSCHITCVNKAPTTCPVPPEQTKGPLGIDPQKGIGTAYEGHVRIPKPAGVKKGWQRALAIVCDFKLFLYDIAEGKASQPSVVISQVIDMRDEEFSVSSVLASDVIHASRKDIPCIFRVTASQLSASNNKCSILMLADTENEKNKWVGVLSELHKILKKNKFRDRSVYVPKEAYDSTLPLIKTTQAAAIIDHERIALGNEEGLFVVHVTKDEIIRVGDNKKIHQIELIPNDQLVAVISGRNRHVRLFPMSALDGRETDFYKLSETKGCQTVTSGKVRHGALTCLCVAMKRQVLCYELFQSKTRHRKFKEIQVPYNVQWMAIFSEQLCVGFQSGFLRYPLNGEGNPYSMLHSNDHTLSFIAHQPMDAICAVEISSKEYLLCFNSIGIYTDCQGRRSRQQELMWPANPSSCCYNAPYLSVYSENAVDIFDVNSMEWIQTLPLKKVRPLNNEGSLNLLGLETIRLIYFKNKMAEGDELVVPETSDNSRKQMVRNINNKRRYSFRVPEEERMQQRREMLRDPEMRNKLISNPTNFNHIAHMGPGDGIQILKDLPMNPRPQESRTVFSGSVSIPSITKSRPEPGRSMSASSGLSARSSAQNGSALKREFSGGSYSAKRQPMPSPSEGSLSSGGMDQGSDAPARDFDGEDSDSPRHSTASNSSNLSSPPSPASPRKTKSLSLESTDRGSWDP

MuSK(h) = molecular target: T6, MuSK(h) (Homo sapiens, UniProt O15146)
T6 construct: purchased Eurofins (KinaseProfiler)
T6 sequence (O15146 24-869): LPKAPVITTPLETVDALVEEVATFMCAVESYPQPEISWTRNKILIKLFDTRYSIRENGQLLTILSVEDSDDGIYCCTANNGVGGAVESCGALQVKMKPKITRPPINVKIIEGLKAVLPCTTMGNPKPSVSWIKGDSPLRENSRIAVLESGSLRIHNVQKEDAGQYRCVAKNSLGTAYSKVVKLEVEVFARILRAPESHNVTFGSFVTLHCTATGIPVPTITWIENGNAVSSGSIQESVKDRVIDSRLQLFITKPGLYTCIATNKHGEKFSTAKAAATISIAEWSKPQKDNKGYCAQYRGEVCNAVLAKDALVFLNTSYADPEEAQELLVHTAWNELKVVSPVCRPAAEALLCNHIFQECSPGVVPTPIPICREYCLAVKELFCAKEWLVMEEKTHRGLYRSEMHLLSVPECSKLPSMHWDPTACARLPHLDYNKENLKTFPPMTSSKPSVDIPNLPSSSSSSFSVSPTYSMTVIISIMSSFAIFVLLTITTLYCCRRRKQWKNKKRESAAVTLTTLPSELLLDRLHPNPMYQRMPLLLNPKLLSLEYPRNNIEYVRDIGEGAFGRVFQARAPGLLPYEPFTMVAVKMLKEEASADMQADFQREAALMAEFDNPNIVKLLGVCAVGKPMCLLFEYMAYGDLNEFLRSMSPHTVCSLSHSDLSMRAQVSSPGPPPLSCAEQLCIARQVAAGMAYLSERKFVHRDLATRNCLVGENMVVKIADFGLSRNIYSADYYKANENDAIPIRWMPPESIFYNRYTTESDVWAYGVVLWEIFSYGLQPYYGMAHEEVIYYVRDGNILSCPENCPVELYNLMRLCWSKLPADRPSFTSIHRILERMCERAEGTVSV

NEK4(h) = molecular target: T7, NEK4(h) (Homo sapiens, UniProt P51957)
T7 construct: purchased Eurofins (KinaseProfiler)

PhKγ1(h) = molecular target: T8, PhKγ1(h) (Homo sapiens, UniProt Q16816)
T8 construct: purchased Eurofins (KinaseProfiler)
T8 sequence (Q16816 whole entry): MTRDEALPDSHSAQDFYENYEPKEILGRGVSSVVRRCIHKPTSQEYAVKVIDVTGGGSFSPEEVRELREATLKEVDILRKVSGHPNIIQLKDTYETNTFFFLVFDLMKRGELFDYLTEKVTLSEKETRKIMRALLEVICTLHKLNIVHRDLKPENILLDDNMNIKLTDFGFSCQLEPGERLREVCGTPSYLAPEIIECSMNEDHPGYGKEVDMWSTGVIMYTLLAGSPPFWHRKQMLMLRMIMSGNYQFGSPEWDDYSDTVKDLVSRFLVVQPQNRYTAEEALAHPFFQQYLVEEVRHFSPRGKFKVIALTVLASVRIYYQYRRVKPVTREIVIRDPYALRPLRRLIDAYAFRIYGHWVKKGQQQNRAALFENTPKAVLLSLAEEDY

SRPK2(h) = molecular target: T9, SRPK2(h) (Homo sapiens, UniProt P78362)
T9 construct: purchased Eurofins (KinaseProfiler)
T9 sequence (P78362 whole entry): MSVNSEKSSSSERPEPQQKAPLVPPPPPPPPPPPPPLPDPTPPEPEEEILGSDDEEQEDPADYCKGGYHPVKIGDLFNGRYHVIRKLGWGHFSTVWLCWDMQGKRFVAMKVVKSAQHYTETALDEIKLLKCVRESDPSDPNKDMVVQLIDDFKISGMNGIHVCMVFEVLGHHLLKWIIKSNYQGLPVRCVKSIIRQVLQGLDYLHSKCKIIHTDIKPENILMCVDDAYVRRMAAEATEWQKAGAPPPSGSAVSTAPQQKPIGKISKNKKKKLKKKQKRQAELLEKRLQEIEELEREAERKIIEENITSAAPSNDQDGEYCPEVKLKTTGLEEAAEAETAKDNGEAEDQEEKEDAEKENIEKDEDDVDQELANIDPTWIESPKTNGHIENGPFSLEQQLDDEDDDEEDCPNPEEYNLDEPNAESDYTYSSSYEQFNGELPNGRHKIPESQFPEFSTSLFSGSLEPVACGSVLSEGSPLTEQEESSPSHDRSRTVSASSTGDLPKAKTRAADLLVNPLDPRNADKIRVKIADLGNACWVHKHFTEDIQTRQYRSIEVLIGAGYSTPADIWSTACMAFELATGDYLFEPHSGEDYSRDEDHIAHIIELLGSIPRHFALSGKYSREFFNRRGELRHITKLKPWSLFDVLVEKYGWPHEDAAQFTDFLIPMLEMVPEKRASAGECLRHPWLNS

T1 sequence (P42684 whole entry): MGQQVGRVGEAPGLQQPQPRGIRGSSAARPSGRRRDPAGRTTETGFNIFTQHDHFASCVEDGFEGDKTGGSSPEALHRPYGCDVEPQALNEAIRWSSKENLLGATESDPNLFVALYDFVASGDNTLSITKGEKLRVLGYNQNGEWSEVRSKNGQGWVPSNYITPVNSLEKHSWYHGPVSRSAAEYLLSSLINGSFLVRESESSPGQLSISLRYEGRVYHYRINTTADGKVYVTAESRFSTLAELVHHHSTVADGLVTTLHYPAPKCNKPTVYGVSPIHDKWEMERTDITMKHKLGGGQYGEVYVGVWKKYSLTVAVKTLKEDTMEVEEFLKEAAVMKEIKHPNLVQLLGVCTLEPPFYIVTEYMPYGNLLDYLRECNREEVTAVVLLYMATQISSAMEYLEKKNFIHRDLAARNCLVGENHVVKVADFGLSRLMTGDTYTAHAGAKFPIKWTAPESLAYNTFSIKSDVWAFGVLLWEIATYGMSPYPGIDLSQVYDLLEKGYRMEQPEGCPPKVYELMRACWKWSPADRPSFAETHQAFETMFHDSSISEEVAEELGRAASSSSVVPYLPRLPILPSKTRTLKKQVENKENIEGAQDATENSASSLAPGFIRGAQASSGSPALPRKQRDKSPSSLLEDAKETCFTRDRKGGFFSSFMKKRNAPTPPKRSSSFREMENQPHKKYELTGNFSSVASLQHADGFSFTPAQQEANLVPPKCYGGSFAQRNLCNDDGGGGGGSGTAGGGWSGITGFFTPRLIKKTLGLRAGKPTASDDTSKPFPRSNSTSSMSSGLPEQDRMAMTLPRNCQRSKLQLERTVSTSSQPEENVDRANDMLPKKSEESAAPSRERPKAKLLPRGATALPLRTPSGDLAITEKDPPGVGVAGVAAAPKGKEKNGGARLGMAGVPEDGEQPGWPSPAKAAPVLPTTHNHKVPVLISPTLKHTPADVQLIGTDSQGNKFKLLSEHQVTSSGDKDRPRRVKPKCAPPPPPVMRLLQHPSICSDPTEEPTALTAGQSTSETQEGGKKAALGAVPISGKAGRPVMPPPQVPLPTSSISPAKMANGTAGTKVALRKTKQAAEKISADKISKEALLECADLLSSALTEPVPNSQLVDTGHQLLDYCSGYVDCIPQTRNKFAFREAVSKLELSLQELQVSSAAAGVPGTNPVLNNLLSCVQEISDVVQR

Question: With `COc1cc(OC)c(Cl)c(-c2ccc3c(NC(=O)c4ccc(N5CCNC(C)(C)C5)cc4)n[nH]c3n2)c1Cl` [3D185] as the molecule, how does the inhibition at 0.01 µM (Arg(h); 10 nM) read?
Answer: 2%

Question: What about the inhibition at 0.1 µM (Arg(h); 100 nM) of the same molecule?
Answer: 36%

Question: And the inhibition at 1 µM (Arg(h); 1000 nM)?
Answer: 87%

Question: What about the inhibition at 0.01 µM (Fyn(h); 10 nM) of the same molecule?
Answer: 8%

Question: What about the inhibition at 0.1 µM (Fyn(h); 100 nM) of the same molecule?
Answer: 27%

Question: What about the inhibition at 1 µM (Fyn(h); 1000 nM) of the same molecule?
Answer: 80%

Question: And the inhibition at 0.01 µM (GRK6(h); 10 nM)?
Answer: -4%

Question: And the inhibition at 0.1 µM (GRK6(h); 100 nM)?
Answer: -6%

Question: And the inhibition at 1 µM (GRK6(h); 1000 nM)?
Answer: -5%

Question: What about the inhibition at 0.01 µM (MAK(h); 10 nM) of the same molecule?
Answer: -1%

Question: What about the inhibition at 0.1 µM (MAK(h); 100 nM) of the same molecule?
Answer: -9%

Question: And the inhibition at 1 µM (MAK(h); 1000 nM)?
Answer: -17%

Question: And the inhibition at 0.01 µM (MRCKα(h); 10 nM)?
Answer: 12%

Question: What about the inhibition at 0.1 µM (MRCKα(h); 100 nM) of the same molecule?
Answer: 16%

Question: What about the inhibition at 1 µM (MRCKα(h); 1000 nM) of the same molecule?
Answer: 14%

Question: What about the inhibition at 0.01 µM (MuSK(h); 10 nM) of the same molecule?
Answer: 2%

Question: And the inhibition at 0.1 µM (MuSK(h); 100 nM)?
Answer: 7%

Question: And the inhibition at 1 µM (MuSK(h); 1000 nM)?
Answer: 47%

Question: What about the inhibition at 0.01 µM (NEK4(h); 10 nM) of the same molecule?
Answer: 16%

Question: And the inhibition at 0.1 µM (NEK4(h); 100 nM)?
Answer: 15%

Question: What about the inhibition at 1 µM (NEK4(h); 1000 nM) of the same molecule?
Answer: 74%

Question: And the inhibition at 0.01 µM (PhKγ1(h); 10 nM)?
Answer: -1%

Question: And the inhibition at 0.1 µM (PhKγ1(h); 100 nM)?
Answer: -9%

Question: And the inhibition at 1 µM (PhKγ1(h); 1000 nM)?
Answer: -12%

Question: And the inhibition at 0.01 µM (SRPK2(h); 10 nM)?
Answer: 2%

Question: And the inhibition at 0.1 µM (SRPK2(h); 100 nM)?
Answer: 2%

Question: And the inhibition at 1 µM (SRPK2(h); 1000 nM)?
Answer: -7%
